From US20090291971A1, “HETEROARYL ETHERS AND PROCESSES FOR THEIR PREPARATION” (Wyeth, priority 2007, published 2009)
pIC50: −log10 of the molar value.

Legend:
Type in all cases: biochemical
[1] = biological target: PI3K alpha (Homo sapiens, UniProt P42336); experiment: PI3 Kinase Assay (PI3K alpha)
Protocol: (§1) PI3-Kinase reactions were performed in […], pH 7, […], and 25 μM ATP, with diC8-PI(4,5)P2 (Echelon, Salt Lake City Utah) as substrate. Nunc 384 well black polypropylene fluorescent plates were used for PI3K assays. Reactions were quenched by the addition of EDTA to a final concentration of […]. Final reaction volumes were […]. For evaluation of PI 3-K inhibitors, 5 ng of enzyme and 2.5 μM of substrate was used per […] reaction volume, and inhibitor concentrations ranged from 100 μM to […]; the final level of DMSO in reactions never exceeded 2%. Reactions were allowed to proceed for one hour at 25° C. After 1 hour, GST-tagged GRP1 (general receptor for phosphoinositides) PH domain fusion protein was added to a final concentration of 100 nM, and BODIPY-TMRI(1,3,4,5)P4 (Echelon) was also added to a final concentration of 5 nM. Final sample volumes were 25 μl with a final DMSO concentration of 0.8%. Assay Plates were read on Perkin-Elmer Envision plate readers with appropriate filters for Tamra [BODIPY-TMRI(1,3,4,5)P4]. Data obtained were used to calculate enzymatic activity and enzyme inhibition by inhibitor compounds.

[2] = biological target: PI3K gamma (Homo sapiens, UniProt P48736); experiment: PI3 Kinase Assay (PI3K gamma); settings: 1 h
Protocol: as §1

[3] = biological target: T1, Flag-IKKβ (Homo sapiens, UniProt O14920); experiment: IKK Kinase Assay (LANCE)
T1 construct: made in house; host or cells: SF9 insect cells (baculovirus)
T1 sequence (O14920 1-756): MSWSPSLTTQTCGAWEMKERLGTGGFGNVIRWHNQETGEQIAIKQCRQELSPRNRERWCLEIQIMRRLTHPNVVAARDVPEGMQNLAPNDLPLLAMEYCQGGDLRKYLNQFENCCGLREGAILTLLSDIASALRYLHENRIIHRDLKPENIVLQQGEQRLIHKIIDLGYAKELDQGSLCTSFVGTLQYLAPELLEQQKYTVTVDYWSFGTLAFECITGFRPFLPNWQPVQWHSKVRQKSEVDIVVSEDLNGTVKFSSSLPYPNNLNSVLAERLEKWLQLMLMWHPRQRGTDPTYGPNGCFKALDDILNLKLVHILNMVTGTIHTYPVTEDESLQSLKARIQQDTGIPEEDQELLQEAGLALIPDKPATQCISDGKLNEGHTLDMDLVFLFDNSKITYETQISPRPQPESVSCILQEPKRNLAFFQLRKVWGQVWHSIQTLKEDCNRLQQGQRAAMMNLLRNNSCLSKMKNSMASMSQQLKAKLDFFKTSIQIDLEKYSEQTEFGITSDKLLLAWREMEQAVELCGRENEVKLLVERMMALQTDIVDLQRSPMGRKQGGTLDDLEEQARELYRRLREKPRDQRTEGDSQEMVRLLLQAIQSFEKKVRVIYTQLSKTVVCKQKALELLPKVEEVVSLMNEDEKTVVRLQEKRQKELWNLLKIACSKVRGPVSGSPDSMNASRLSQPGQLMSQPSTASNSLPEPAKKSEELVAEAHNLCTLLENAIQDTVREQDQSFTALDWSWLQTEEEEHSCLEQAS
Excerpt: Human IKKβ cDNA is amplified by reverse transcriptase-polymerase chain reaction from human placental RNA (CLONTECH) using primers that incorporated the FLAG-epitope at the C terminus of IKKβ. FLAG-IKKβ is inserted into the baculovirus expression plasmid pFASTBAC (Life Technologies). Following the manufacturer's protocol for the BAC-TO-BAC (Life Technologies) Baculovirus Expression System, recombinant baculoviruses expressing the IKKβ enzyme are made. Briefly, 9×10^5 SF9 cells per well of a 6-well plate are transfected with one μg of miniprep bacmid DNA using the CellFECTIN™ reagent. Virus is harvested 72 hours post transfection, and a viral titer is performed, after which a high titer viral stock (2×10^8 pfu/ml) is amplified by three to four rounds of infection. […]
Purified Flag-IKKβ enzyme (2 nM final concentration) is typically used in the kinase reaction buffer described above supplemented with 0.0025% Brij solution (Sigma) to help stabilize the enzyme. […] 25 μL of 20 mM EDTA is added to terminate the reactions and then 100 μL of detection mixture [0.25 nM Europium labeled anti-phospho-IκBα (prepared by Wallac) and 0.25 μg/mL final concentration streptavidin-APC, Wallac] is added 30 minutes before reading the plates in a Wallac VICTOR plate reader. […]

[4] = biological target: T2, human PKCθ full length enzyme (Homo sapiens, UniProt Q04759); experiment: PKC Theta IMAP Assay
T2 construct: human PKCθ full length enzyme; purchased Panvera P2996
Protocol: The materials used include the following: human PKCθ full length enzyme (Panvera Cat#P2996); substrate peptide: 5FAM-RFARKGSLRQKNV-OH (Molecular Devices, RP7032); ATP (Sigma Cat #A2383); DTT (Pierce, 20291); 5× kinase reaction buffer (Molecular Devices, R7209); 5× binding buffer A (Molecular Devices, R7282), 5× binding buffer B (Molecular Devices, R7209); IMAP Beads (Molecular Devices, R7284); and 384-well plates (Corning Costar, 3710).
The reaction buffer was prepared by diluting the 5× stock reaction buffer and adding DTT to obtain a concentration of 3.0 mM. The binding buffer was prepared by diluting the 5× binding buffer A. A master mix solution was prepared using a 90% dilution of the reaction buffer containing 2×ATP (12 uM) and 2× peptide (200 nm). Compounds were diluted in DMSO to 20× of the maximum concentration for the IC50 measurement. 27 μl of the master mix solution for each IC50 curve was added to the first column in a 384-well plate and 3 μl of 20× compound in DMSO was added to each well. The final concentration of compound was 2× and 10% DMSO. DMSO was added to the rest of the master mix to increase the concentration to 10%. 10 μl of the master mix containing 10% DMSO was added to the rest of the wells on the plate except the 2nd column. 20 μl was transferred from the first column to the 2nd column. […] FP was measured using Envision2100 (PerkinElmer Life Sciences). […]

[5] = biological target: T3, human TOR (FLAG-TOR) (Homo sapiens, UniProt P42345); experiment: mTOR Enzyme Assay (DELFIA)
T3 construct: FLAG
Protocol: The routine human TOR assays with purified enzyme were performed in 96-well plates by DELFIA format as follows. Enzymes were first diluted in kinase assay buffer (10 mM Hepes (pH 7.4), 50 mM NaCl, 50 mM β-glycerophosphate, 10 mM MnCl2, 0.5 mM DTT, 0.25 μM microcystin LR, and 100 μg/mL BSA). To each well, 12 μL of the diluted enzyme were mixed briefly with 0.5 μL test inhibitor or control vehicle dimethylsulfoxide (DMSO). The kinase reaction was initiated by adding 12.5 μL kinase assay buffer containing ATP and His6-S6K to give a final reaction volume of 25 μL containing 800 ng/mL FLAG-TOR, 100 μM ATP and 1.25 μM His6-S6K. The reaction plate was incubated for 2 hours (linear at 1-6 hours) at room temperature with gentle shaking and then terminated by adding 25 μL Stop buffer (20 mM Hepes (pH 7.4), 20 mM EDTA, 20 mM EGTA). The DELFIA detection of the phosphorylated (Thr-389) His6-S6K was performed at room temperature using a monoclonal anti-P(T389)-p70S6K antibody (1A5, Cell Signaling) labeled with Europium-N-1-ITC (Eu) (10.4 Eu per antibody, PerkinElmer). The DELFIA Assay buffer and Enhancement solution were purchased from PerkinElmer. 45 μL of the terminated kinase reaction mixture was transferred to a MaxiSorp plate (Nunc) containing 55 μL PBS. […] L of DELFIA Enhancement solution was added to each well and the plates were read in a PerkinElmer Victor model plate reader. […]

Sequence of PI3K alpha (P42336 whole entry, species assumed, the tested form may be a part): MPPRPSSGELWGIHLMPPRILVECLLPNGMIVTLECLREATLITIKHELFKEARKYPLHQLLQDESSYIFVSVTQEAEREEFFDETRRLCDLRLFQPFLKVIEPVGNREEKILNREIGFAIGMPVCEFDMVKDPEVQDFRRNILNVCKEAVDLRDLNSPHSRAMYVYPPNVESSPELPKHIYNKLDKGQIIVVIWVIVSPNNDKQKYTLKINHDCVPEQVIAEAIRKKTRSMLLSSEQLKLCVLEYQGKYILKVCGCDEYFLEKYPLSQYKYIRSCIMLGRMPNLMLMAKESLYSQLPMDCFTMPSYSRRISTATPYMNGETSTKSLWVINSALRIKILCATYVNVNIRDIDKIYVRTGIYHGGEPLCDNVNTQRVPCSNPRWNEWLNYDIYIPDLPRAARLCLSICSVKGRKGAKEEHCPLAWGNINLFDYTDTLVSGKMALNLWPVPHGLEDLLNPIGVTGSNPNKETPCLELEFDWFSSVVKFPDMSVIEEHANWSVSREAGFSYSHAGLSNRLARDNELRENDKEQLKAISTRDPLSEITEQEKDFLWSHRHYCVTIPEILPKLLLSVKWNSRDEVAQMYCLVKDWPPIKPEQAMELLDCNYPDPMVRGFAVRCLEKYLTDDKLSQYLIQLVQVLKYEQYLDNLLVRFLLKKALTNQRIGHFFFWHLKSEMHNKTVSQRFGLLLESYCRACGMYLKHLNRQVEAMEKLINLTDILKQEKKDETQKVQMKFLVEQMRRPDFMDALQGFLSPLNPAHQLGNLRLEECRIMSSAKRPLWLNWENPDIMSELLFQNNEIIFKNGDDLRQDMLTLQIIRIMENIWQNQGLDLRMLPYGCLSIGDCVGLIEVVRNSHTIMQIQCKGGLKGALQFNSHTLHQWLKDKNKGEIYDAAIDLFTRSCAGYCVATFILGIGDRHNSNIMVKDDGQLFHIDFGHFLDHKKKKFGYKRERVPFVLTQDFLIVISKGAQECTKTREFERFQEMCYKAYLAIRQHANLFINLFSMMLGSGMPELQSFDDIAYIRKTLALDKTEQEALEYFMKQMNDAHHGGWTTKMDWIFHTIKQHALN
Sequence of PI3K alpha (P27986 whole entry partner, species assumed, the tested form may be a part): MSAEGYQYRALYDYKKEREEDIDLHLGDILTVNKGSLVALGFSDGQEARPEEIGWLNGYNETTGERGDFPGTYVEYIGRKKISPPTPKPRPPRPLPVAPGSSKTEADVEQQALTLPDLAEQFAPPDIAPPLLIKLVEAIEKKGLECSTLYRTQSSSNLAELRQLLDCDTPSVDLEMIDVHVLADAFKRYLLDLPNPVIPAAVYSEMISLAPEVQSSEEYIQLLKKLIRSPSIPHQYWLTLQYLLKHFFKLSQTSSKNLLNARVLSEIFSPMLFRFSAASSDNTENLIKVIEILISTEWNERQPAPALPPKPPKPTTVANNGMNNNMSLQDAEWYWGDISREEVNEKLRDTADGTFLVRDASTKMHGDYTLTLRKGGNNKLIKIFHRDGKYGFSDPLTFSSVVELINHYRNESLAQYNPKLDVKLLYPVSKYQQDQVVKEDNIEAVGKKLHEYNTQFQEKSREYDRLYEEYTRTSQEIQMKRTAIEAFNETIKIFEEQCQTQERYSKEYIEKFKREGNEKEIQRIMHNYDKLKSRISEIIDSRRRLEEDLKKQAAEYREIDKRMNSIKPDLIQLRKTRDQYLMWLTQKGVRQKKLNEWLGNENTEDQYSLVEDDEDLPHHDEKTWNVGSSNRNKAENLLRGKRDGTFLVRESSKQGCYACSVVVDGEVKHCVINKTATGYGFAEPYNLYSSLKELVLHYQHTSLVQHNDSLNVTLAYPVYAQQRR
Sequence of PI3K gamma (P48736 whole entry, species assumed): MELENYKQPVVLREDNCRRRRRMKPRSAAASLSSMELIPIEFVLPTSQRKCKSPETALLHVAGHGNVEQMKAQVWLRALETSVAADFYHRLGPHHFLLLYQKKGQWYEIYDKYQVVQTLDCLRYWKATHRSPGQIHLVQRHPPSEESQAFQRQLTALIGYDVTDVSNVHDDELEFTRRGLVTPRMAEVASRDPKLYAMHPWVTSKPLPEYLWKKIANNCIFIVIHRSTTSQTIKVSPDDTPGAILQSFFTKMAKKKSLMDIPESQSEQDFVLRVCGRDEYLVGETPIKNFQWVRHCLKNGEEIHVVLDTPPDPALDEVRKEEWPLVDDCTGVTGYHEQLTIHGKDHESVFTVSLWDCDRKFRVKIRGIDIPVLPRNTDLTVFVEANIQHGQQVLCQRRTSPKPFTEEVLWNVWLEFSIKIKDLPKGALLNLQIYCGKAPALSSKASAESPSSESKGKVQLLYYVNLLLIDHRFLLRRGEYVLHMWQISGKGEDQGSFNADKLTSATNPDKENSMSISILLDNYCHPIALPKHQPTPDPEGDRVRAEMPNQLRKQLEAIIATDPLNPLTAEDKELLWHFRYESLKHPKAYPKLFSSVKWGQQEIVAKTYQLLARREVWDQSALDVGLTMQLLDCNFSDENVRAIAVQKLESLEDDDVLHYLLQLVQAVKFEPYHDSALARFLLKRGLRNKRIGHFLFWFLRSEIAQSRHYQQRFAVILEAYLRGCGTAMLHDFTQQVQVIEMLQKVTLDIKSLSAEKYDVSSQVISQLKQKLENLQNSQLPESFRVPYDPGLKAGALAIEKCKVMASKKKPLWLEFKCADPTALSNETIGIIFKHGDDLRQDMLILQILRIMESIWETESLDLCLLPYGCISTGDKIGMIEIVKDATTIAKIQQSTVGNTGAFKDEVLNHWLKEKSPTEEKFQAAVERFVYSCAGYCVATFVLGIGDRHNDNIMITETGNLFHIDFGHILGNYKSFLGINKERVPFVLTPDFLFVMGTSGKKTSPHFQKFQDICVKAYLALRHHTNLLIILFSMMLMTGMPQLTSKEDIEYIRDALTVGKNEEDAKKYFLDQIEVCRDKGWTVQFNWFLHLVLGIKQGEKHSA
T2 sequence (Q04759 whole entry): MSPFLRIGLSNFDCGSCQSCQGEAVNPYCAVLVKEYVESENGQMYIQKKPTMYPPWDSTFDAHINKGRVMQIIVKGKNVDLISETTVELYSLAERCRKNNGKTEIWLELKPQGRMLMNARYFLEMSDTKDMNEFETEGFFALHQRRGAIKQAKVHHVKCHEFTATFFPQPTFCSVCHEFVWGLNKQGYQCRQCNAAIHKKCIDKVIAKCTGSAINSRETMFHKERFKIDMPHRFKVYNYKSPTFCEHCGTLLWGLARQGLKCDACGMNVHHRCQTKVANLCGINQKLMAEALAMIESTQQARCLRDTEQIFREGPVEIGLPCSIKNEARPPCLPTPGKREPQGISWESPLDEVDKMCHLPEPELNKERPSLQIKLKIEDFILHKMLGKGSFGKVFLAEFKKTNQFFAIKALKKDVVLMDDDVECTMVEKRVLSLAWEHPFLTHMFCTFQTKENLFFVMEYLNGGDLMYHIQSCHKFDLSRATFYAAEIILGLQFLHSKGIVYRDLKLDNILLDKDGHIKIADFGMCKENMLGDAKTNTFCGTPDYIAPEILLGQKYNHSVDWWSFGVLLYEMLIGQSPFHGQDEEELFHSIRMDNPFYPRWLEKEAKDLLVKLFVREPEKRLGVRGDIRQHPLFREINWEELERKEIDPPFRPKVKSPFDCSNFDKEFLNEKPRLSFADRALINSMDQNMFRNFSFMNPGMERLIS

| Compound | inhibition at 30 µM [1] [%] | inhibition at 30 µM [2] [%] | inhibition at 30 µM [3] [%] | pIC50 [4] | inhibition at 10 µM [5] [%] |
| --- | --- | --- | --- | --- | --- |
| Cc1noc(C)c1Oc1ncnc2ccccc12 [Example 26, 3,5-Dimethyl-4-(quinazolin-4-yloxy)isoxazole] | 56 | 12 | 51 | 4.59 | – |
| c1ccc2c(Oc3cncnc3)ncnc2c1 [Example 31, 4-(Pyrimidin-5-yloxy)quinazoline] | 33 | 53 | – | – | 12 |
